pIC50: −log10 of the molar value. In brackets after ≈: the same amount, converted by molar mass.
Key:
Human rhinovirus sp. [1] = assay: Antiviral activity against Human rhinovirus A2 infected in human HeLa-RH cells assessed as inhibition of cytopathic effect by microscopy based analysis; format: functional, organism-based
Zika virus = assay: Antiviral activity against Zika virus infected in african green monkey Vero E6 cells assessed as inhibition of cytopathic effect by microscopy based analysis; format: functional, organism-based; details: Vero C1008
Enterovirus A71 = assay: Antiviral activity against human EV71 infected in human RD cells assessed as inhibition of cytopathic effect by microscopy based analysis; format: functional, organism-based; details: Enterovirus A
[2] = Selectivity index, ratio of CC50 for human Huh-7 cells to IC50 for Yellow fever virus infected in human Huh-7 cells; format: toxicity, cell-based; details: read-out: Ratio CC50/IC50
Yellow fever virus = assay: Antiviral activity against Yellow fever virus infected in human Huh-7 cells assessed as inhibition of cytopathic effect by microscopy based analysis; format: functional, organism-based
[3] = Cytotoxicity against African green monkey Vero A cells; format: toxicity, cell-based; details: chlorocebus sabaeus
[4] = Cytotoxicity against human RD cells; format: toxicity, cell-based
Pseudomonas aeruginosa [5] = assay: Antibacterial activity against Pseudomonas aeruginosa CIP A22 assessed as reduction in bacterial growth by micro-broth dilution method; format: functional
[6] = Cytotoxicity against African green monkey Vero E6 cells; format: toxicity, cell-based, Vero C1008; details: chlorocebus sabaeus
Staphylococcus aureus [7] = assay: Bactericidal activity against Staphylococcus aureus CIP 54127; format: functional
Escherichia coli [8] = assay: Antibacterial activity against Escherichia coli CIP 53154 assessed as reduction in bacterial growth by micro-broth dilution method; format: functional
Staphylococcus aureus [9] = assay: Ratio of MBC to MIC for Staphylococcus aureus CIP 54127; format: functional
Human rhinovirus sp. [10] = assay: Antiviral activity against Human rhinovirus B14 infected in human HeLa-RH cells assessed as inhibition of cytopathic effect by microscopy based analysis; format: functional, organism-based
Escherichia coli [11] = assay: Bactericidal activity against Escherichia coli CIP 53154; format: functional
Staphylococcus aureus [12] = assay: Antibacterial activity against Staphylococcus aureus CIP 54127 assessed as reduction in bacterial growth by micro-broth dilution method; format: functional
[13] = Cytotoxicity against human Huh-7 cells; format: toxicity, cell-based
[14] = Cytotoxicity against human HeLa-RH cells; format: toxicity, cell-based
Escherichia coli [15] = assay: Ratio of MBC to MIC for Escherichia coli CIP 53154; format: functional
Pseudomonas aeruginosa [16] = assay: Bactericidal activity against Pseudomonas aeruginosa CIP A22; format: functional
Pseudomonas aeruginosa [17] = assay: Ratio of MBC to MIC for Pseudomonas aeruginosa CIP A22; format: functional
Enterococcus faecalis [18] = assay: Ratio of MBC to MIC for Enterococcus faecalis; format: functional
Chikungunya virus = assay: Antiviral activity against CHIKV infected in African green monkey Vero A cells assessed as inhibition of cytopathic effect by microscopy based analysis; format: functional, organism-based
Enterococcus faecalis [19] = assay: Antibacterial activity against Enterococcus faecalis assessed as reduction in bacterial growth by micro-broth dilution method; format: functional
[20] = Selectivity index, ratio of CC50 for African green monkey Vero E6 cells to IC50 for Zika virus infected in african green monkey Vero E6 cells; format: toxicity; details: read-out: Ratio CC50/IC50
Enterococcus faecalis [21] = assay: Bactericidal activity against Enterococcus faecalis; format: functional
SARS-CoV-2 = assay: Antiviral activity against SARS-CoV-2 HCoV-19/Egypt/NRC-03/2020 infected in African green monkey Vero E6 cells assessed as inhibition of virus induced cytopathic effect pre-infected with virus for 1 hr followed by compound addition and measured after 72 hrs by crystal violet staining based analysis; format: functional, organism-based; details: Severe acute respiratory syndrome coronavirus 2, HCoV-19/Egypt/NRC-03/2020, Vero C1008
Pseudomonas aeruginosa [22] = assay: Antibacterial activity against Pseudomonas aeruginosa; format: functional
Staphylococcus aureus [23] = assay: Antibacterial activity against Staphylococcus aureus; format: functional
[24] = Selectivity index, ratio of CC50 for human HeLa-RH cells to IC50 for Human rhinovirus A2 infected in human HeLa-RH cells; format: toxicity, cell-based; details: read-out: Ratio CC50/IC50
[25] = Selectivity index, ratio of CC50 for human HeLa-RH cells to IC50 for Human rhinovirus B14 infected in human HeLa-RH cells; format: toxicity, cell-based; details: read-out: Ratio CC50/IC50

CCOP(=O)(OCC)C(Nc1ccccc1Cl)c1cc(Cn2cc(Cn3c(=O)cc(C)c4cc(Br)ccc43)nn2)ccc1O (stereo not drawn) showed a pIC50 (Human rhinovirus sp. [1]) of less than 6.39, a pIC50 (Zika virus) of 4.15 and a pIC50 (Enterovirus A71) of less than 4.00. For the same compound, the selectivity ratio [2] was 2.02, the pIC50 (Yellow fever virus) was 5.00 and the CC50 [3] was 7.58 µM. For the same compound, the CC50 [4] was greater than 100 µM, the MIC (Pseudomonas aeruginosa [5]) was 1780 µM (≈ 1250 µg/mL) and the CC50 [6] was greater than 100 µM. The MBC (Staphylococcus aureus [7]) was 440 µM (≈ 308 µg/mL), the MIC (Escherichia coli [8]) was 440 µM (≈ 308 µg/mL) and the Ratio (Staphylococcus aureus [9]) was 1. The pIC50 (Human rhinovirus sp. [10]) was less than 4.48, the MBC (Escherichia coli [11]) was 440 µM (≈ 308 µg/mL) and the MIC (Staphylococcus aureus [12]) was 440 µM (≈ 308 µg/mL). It also gave a CC50 [13] of 20 µM, a CC50 [14] of 9.88 µM and a Ratio (Escherichia coli [15]) of 1. For the same compound, the MBC (Pseudomonas aeruginosa [16]) was 1780 µM (≈ 1250 µg/mL), the Ratio (Pseudomonas aeruginosa [17]) was 4.05 and the Ratio (Enterococcus faecalis [18]) was 1. It also gave a pIC50 (Chikungunya virus) of less than 4.00, an MIC (Enterococcus faecalis [19]) of 60 µM (≈ 42.1 µg/mL) and a selectivity ratio [20] greater than 1.4. It also gave an MBC (Enterococcus faecalis [21]) of 60 µM (≈ 42.1 µg/mL).
In the case of Fc1ccc2nc(C(F)(F)F)cc(OCc3cn(-c4ccccc4Cl)nn3)c2c1, the pIC50 (SARS-CoV-2) was 4.22.
Work on COC(=O)C(NC(=O)c1ccccc1)n1cc(Cn2c(=O)cc(C(=O)N[C@H](C)C(=O)OC)c3ccccc32)nn1 (stereo partly drawn) yielded an MIC (Pseudomonas aeruginosa [22]) of 78 µg/mL (≈ 143 µM) and an MIC (Staphylococcus aureus [23]) of 39 µg/mL (≈ 71.4 µM).
In the case of Cc1cc(CCCOc2c(C)cc(-c3noc(C(F)(F)F)n3)cc2C)on1 [PLECONARIL], the pIC50 (Human rhinovirus sp. [1]) was 6.36, the selectivity ratio [24] was greater than 227 and the selectivity ratio [25] was greater than 500. It also gave a pIC50 (Human rhinovirus sp. [10]) of 6.70 and a CC50 [14] greater than 100 µM.

— ChEMBL document CHEMBL5505983, “Design, synthesis, and molecular modeling studies of novel 2-quinolone-1,2,3-triazole-α-aminophosphonates hybrids as dual antiviral and antibacterial agents” (Eur J Med Chem, 2024)
